Data published in patent publication US9527836B2, “Crystal having specific crystal habit and pharmaceutical composition containing the crystal as active ingredient” (POLA PHARMA INC., priority 2013, dated 2016).

Key:
[1] = Dissolution state in ethanol, visually confirmed; assay type: physicochemical; conditions: 20 mg crystal in 2 ml ethanol, stationarily placed at 30° C. for 2 hours
Experimental: 20 mg of each of the crystals was weighed, to which 2 ml of ethanol was added, followed by being stored by stationarily placed at 30° C. for 2 hours. The dissolution state was visually confirmed. Accordingly, it is appreciated that the crystal of the present invention is easily dissolved in the polar solvent.

[2] = system: Trichomonas vaginalis (clinically isolated strain); experiment: Direct effect on Trichomonas vaginalis culture, number of individuals counted on a hemocytometer; assay type: cell-based; conditions: 5.08 mg solid crystal added to Trichomonas medium F; culture of 3.93×10^5 individuals/mL; cultured at 37° C. for 4 days
Experimental: The direct effect of luliconazole was investigated by using Trichomonas vaginalis (clinically isolated strain). That is, there were prepared a sample in which 5.08 mg of luliconazole of Comparative Example 1 recrystallized from n-hexane and ethyl acetate was added to “Trichomonas medium F” (produced by Fuji Pharma Co., Ltd.), a sample in which 5.08 mg of the crystal of Example 2 was added, and a sample (control) in which 5 μL of water was added. […] of a culture of Trichomonas vaginalis of 3.93×10^5 individuals/mL was added thereto, followed by being cultured at 37° C. for 4 days, and the number of individuals of Trichomonas was counted on a hemocytometer. A significant difference was confirmed at a significance level of not more than 1% among the three samples. Accordingly, it is appreciated that the crystal of the present invention is excellent in the solid-state reactivity.

[3] = Tablet hardness measurement with hardness meter PTB311; assay type: physicochemical; conditions: tablet of 50% by mass lactose and 50% by mass luliconazole, tablet making pressure 1 ton/cm^2, 9 mmφ, average of six samples
Experimental: A tablet was manufactured in accordance with a formulation shown in Table 5 below, and the hardness was measured. PTB311 (produced by Pharma Test GmbH) was used as a hardness meter. As for the tablet making condition, the tablet making was performed at a tablet making pressure of 1 ton/cm^2 by using a pestle and a mortar of 9 mmφ. In Comparative Example, the operation was performed in the same manner as described above by using the crystal (Comparative Example 1) obtained by performing the recrystallization with n-hexane-ethyl acetate.

[4] = listed as crystal of Comp. Ex. 1

Dissolution state [1, 4]	Hardness [3, 4] [N]	Dissolution state ([1]; listed as crystal of Example 1)	Dissolution state ([1]; listed as crystal of Example 2)	Hardness ([3]; listed as crystal of Example 2) [N]	Compound	number of individuals of Trichomonas (Average) [2]
crystal was found at bottom	29.1 ± 3.0	–	–	–	N#C/C(=C1/SC[C@@H](c2ccc(Cl)cc2Cl)S1)n1ccnc1 [Comp. Ex. 1, luliconazole, reference compound]	376000
–	–	no crystal was found	–	–	N#C/C(=C1/SC[C@@H](c2ccc(Cl)cc2Cl)S1)n1ccnc1 [Example 1, luliconazole]	–
–	–	–	no crystal was found	73.7 ± 4.2	N#C/C(=C1/SC[C@@H](c2ccc(Cl)cc2Cl)S1)n1ccnc1 [Example 2, luliconazole]	256000
